# Experimental data: publication PMC3640428 (Journal of the American Chemical Society, 2013)
# Target: T1, T. thermophilus GluRS (glutamyl-tRNA synthetase) (Thermus thermophilus, UniProt P27000)
# T1 sequence (P27000 1-468): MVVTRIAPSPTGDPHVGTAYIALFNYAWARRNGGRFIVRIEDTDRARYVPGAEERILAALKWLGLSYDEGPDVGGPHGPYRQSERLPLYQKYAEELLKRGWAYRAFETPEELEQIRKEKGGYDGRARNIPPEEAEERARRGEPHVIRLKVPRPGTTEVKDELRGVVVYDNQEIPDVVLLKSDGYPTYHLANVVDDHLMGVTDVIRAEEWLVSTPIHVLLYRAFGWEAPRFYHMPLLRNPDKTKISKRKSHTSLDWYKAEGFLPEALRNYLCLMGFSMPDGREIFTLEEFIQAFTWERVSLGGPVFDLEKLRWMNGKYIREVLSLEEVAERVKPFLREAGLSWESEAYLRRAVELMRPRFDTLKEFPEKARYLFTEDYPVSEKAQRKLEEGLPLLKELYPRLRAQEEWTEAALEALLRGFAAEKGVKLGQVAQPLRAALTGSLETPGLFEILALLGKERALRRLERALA
# Assay: intrinsic tryptophan fluorescence titration
# Format: binding
compound,measurement,value
Nc1ncnc2c1ncn2[C@@H]1O[C@H](COP(=O)(O)OP(=O)(O)OP(=O)(O)O)[C@@H](O)[C@H]1O [ATP],Kd,50 ± 12 µM
